Data: ChEMBL document CHEMBL3525924, “Cytochrome P450 3A-mediated microsomal biotransformation of 1α,25-dihydroxyvitamin D3 in mouse and human liver: drug-related induction and inhibition of catabolism” (Drug Metab Dispos, 2012)

Each compound was assayed against T1, Cytochrome P450 3A4 (Homo sapiens, UniProt P08684) (assay: Drug metabolism assessed as 100 uM tamoxifen-mediated inhibition of human CYP3A4-mediated metabolite formation by LC/MS analysis). Details: recombinant enzyme.
T1 sequence (P08684 whole entry): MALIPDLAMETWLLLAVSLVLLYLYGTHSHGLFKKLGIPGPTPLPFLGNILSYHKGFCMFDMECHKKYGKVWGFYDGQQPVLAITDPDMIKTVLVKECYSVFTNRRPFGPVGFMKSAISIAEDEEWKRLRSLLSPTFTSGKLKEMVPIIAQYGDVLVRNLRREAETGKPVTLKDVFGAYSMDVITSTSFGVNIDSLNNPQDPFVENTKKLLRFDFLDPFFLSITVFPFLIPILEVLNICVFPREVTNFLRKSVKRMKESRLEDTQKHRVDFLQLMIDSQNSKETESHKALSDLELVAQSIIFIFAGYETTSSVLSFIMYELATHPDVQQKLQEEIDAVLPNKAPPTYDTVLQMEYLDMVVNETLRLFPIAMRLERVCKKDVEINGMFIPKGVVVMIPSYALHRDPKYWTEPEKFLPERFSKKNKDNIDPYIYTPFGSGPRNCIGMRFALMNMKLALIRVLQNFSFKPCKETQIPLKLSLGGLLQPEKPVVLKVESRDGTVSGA
Type: ADME
For `Cc1nnc2n1-c1ccc(Cl)cc1C(c1ccccc1Cl)=NC2` [TRIAZOLAM], the Drug metabolism was “metabolite_not_detected”.

These compounds were tested against T1, Cytochrome P450 3A4 (assay: Drug metabolism assessed as 1 uM ketoconazole-mediated inhibition of human CYP3A4-mediated metabolite formation by LC/MS analysis). Details: recombinant enzyme.
Type: ADME
For `Cc1nnc2n1-c1ccc(Cl)cc1C(c1ccccc1Cl)=NC2` [TRIAZOLAM], the Drug metabolism was “metabolite_not_detected”.

These compounds were tested against T1, Cytochrome P450 3A4 (assay: Drug metabolism assessed as 10 uM ritonavir-mediated inhibition of human CYP3A4-mediated metabolite formation by LC/MS analysis). Details: recombinant enzyme.
Type: ADME
`Cc1nnc2n1-c1ccc(Cl)cc1C(c1ccccc1Cl)=NC2` [TRIAZOLAM] was tested, and the Drug metabolism was “metabolite_not_detected”.

The compounds below were run against T1, Cytochrome P450 3A4 (assay: Drug metabolism assessed as 100 uM troleandromycin-mediated inhibition of human CYP3A4-mediated metabolite formation by LC/MS analysis). Details: recombinant enzyme.
Type: ADME
For `Cc1nnc2n1-c1ccc(Cl)cc1C(c1ccccc1Cl)=NC2` [TRIAZOLAM], the Drug metabolism was “metabolite_not_detected”.
